In paper PMC3767324, “Synthesis, Characterization, and BSA Binding Studies of Some New Benzamides Related to Schiff Base” (ISRN Organic Chemistry, 2013):
Values after ≈ are worked out from the molar mass of the structure shown. Values joined by “and” are separate entries in the source; they are usually repeats but may differ in a detail not shown here. Identical values can stand only once.

Legend:
[1] = system: A. niger; assay: minimum inhibitory concentration by dilution method; format: cell-based
Description: [The procedure below names another organism; the source lists this organism under the same test.] (§1) The in vitro antimicrobial screening effects of the compounds (3 and 5a–j) were individually tested against a panel of bacteria and fungi including Staphylococcus aureus (NCIM 5021), Bacillus subtilis (NCIM 2999), Pseudomonas aeruginosa (NCIM 5029), Escherichia coli (NCIM 2574), Candida. albicans (NCIM 3471), and Aspergillus flavus (NCIM 524). Microbial strains were cultured overnight at 37°C in nutrient and potato dextrose agar medium. All the pure microbial strains were obtained from National Chemical Laboratory (NCL), Pune, India.
(§2) The minimum inhibitory concentration of the synthesized compounds was determined by dilution method. The compounds were dissolved and then diluted using DMSO; two-fold serial concentrations of the compounds were employed to determine the MIC. In this method, the test concentrations of chemically synthesized compounds were made from 5 to 125 μg/mL.

[2] = system: Aspergillus flavus (NCIM 524); assay: as above; format: cell-based; conditions: Aspergillus flavus, NCIM524
Description: as §1, §2

[3] = system: Bacillus subtilis (NCIM 2999); assay: as above; format: cell-based; conditions: Bacillus subtilis, NCIM2999
Description: as §1, §2

[4] = system: Escherichia coli (NCIM 2574); assay: as above; format: cell-based; conditions: Escherichia coli, NCIM2574
Description: as §1, §2

[5] = system: Pseudomonas aeruginosa (NCIM 5029); assay: as above; format: cell-based; conditions: Pseudomonas aeruginosa, NCIM5029
Description: as §1, §2

[6] = system: Staphylococcus aureus (NCIM 5021); assay: as above; format: cell-based
Description: as §1, §2

[7] = DPPH free radical scavenging activity; conditions: DPPH 0.1 mM, absorbance at 517 nm; triplicate, mean ± SD
Description: The capacity to scavenge the stable free radical 2,2-diphenyl-1-picrylhydrazyl (DPPH) was monitored according to the Blois method. The test samples (10–100 μL) were mixed with 1 mL of DPPH (0.1 mM) solution and filled up with methanol to a final volume of 4 mL. Absorbance of the resulting solution was measured at 517 nm in a visible spectrophotometer (Model 166, Systronics, India). The free radical scavenging rate of the reaction solution was calculated as a percentage (%) of DPPH decolouration using the equation (1) I(%)=(Ablank−Asample/Ablank)×100, where A blank is the absorbance of the control reaction mixture excluding the test compounds, and A sample is the absorbance of the test compounds. Radical scavenging potential was expressed as IC50 value, which represents the sample concentration at which 50% of the DPPH radicals were scavenged. Tests were carried out in triplicate and the results were expressed as mean values ± standard deviations.
DPPH radical scavenging activity evaluation is a standard assay in antioxidant activity studies and offers a rapid technique for screening the radical scavenging activity of specific compounds [24]. The free radical scavenging activity of newly synthesized compounds was tested by their ability to bleach the stable radical DPPH. The activity was monitored by following the absorption at 517 nm in a visible spectrophotometer. In the presence of any free radical scavenger, this odd electron pairs up and causes the diminishing of absorption band which is proportional to the number of electrons taken up. The activity was studied at different concentrations for each compound. […] Resulting from a color change from purple to yellow the absorbance decreased when the antioxidant molecule can quench DPPH free radical through donation of hydrogen atom or by electron donating to form a stable DPPH molecule.

[8] = superoxide radical scavenging assay (NBT, xanthine-xanthine oxidase system); format: biochemical; conditions: NBT reduction, pH 7.8, 560 nm, three replicates
Description: Superoxide radical scavenging activity was measured as described by Kovala-Demertzi et al., (2004). The assay is based on the reduction of nitroblue tetrazolium (NBT) by superoxide ions generated by the xanthine-xanthine oxidase system (X–XO). The reaction system contained 0.2 mM xanthine and 0.6 mM NBT in 0.1 M phosphate buffer, pH 7.8. The tested compounds were dissolved in methanol. The reaction was started by addition of XO (0.07 U mL^−1), an activity which allowed to yield the absorbance change between 0.03 and 0.04 per minute, at 560 nm. The extent of NBT reduction was followed spectrophotometrically, by measuring the increase of the absorbance at 560 nm. All the experiments were replicated three times. The IC50 of each compound was defined as the concentration which inhibited 50% of the NBT reduction by O2 ^•− produced in the X–XO system.
Superoxide anion radical is normally initially formed, and its effects can be magnified because it produces other kinds of free radicals and oxidizing agents. The enzymatic superoxide anion radical was generated by the xanthine/xanthine oxidase reaction system. The production of superoxide was estimated by the nitroblue tetrazolium method. […] Differently, in the m-position, methoxy and hydroxyl groups act as an electron-withdrawing properties, ([…]), which are possible for providing a destabilizing effect.

[9] = biological target: T1, bovine serum albumin (BSA) (Bos taurus, UniProt P02769); assay: energy transfer from BSA to compound (Forster theory); format: binding; conditions: for J (spectral overlap): BSA emission / compound UV absorption; for R 0 (critical energy transfer distance): K^2 = 2/3, N = 1.311, Φ = 0.118
T1 construct: Bovine serum albumin (BSA), one of the major components in plasma protein; purchased Sigma Aldrich Bangalore
Text: The binding distance (r) between a protein residue (donor) and a bound drug molecule (acceptor) can be calculated from Foster's nonradiative energy transfer theory. The efficiency of energy transfer E and the distance between the acceptor and donor r can be defined as the following equation [36]: (4) E=1−(F/F0)=R06/R06+r^6, where r is the distance between the acceptor and donor; F and F 0 are the fluorescence intensities of BSA in the presence of and in the absence of quencher, respectively; R 0 is the critical energy transfer distance when the transfer efficiency is 50%. It is given by the following equation: (5) R06=8.8×10^−25K^2N^−4ΦJ.
K ^2 is a factor describing the spatial orientation factor related to the geometry of the donor and acceptor of dipoles; N is the refractive index of medium; Φ is the fluorescence quantum yield of the donor in the absence of acceptor; J is the effect of spectra overlap between the fluorescence emission spectrum of the donor and the UV-vis absorption spectrum of the acceptor, and J can be calculated by (6): (6) J=f(λ)ε(λ)λ^4Δλ/ΣF(λ)Δλ, where F(λ) is the corrected fluorescence intensity of the donor in the wavelength range from λ to λ + Δλ and ε(λ) is the molar absorption coefficient of the acceptor at wavelength λ. In the present case, K ^2 = 2/3, N = 1.311, and Φ = 0.118 for BSA molecules, respectively.

[10] = Staphylococcus aureus, NCIM5021

T1 sequence (P02769 25-607): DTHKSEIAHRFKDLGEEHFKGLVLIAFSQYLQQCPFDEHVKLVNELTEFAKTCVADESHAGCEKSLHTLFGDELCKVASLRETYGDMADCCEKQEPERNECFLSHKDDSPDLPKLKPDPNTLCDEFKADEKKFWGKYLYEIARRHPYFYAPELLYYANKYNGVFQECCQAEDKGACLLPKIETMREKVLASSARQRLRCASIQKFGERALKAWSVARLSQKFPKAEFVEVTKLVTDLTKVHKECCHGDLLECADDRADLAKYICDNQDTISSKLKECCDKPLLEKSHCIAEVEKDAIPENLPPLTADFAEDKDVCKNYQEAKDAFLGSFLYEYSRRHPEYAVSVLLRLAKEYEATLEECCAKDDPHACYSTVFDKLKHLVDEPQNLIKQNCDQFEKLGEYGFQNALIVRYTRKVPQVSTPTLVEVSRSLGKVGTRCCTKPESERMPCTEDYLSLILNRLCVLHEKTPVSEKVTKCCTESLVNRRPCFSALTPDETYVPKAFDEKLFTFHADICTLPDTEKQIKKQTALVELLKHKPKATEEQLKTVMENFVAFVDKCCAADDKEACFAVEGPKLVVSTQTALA

CC(=O)N(C(=O)c1cc(F)ccc1F)c1ccc(N=Cc2cc3ccccc3o2)cc1 [Compound 5a, N-acetyl-N-(4-((benzofuran-2-ylmethylene)amino)phenyl)-2,5-difluorobenzamide]
MIC ([1]; Aspergillus niger): 15 µg/mL (≈ 35.9 µM) | MIC [2]: 15 µg/mL (≈ 35.9 µM) | MIC [3]: 12 µg/mL (≈ 28.7 µM) | MIC [4]: 25 µg/mL (≈ 59.8 µM) | MIC [5]: 25 µg/mL (≈ 59.8 µM) | MIC [6, 10]: 12 µg/mL (≈ 28.7 µM) | IC50 DPPH [7]: 97.5 ± 0.37 µg/mL (≈ 233 µM) | IC50 Superoxide [8]: 91.3 ± 0.26 µg/mL (≈ 218 µM) | E (efficiency of energy transfer) [9]: 0.11 | r (binding distance between donor BSA and acceptor) [9]: 3.77 nm | J (spectral overlap) [9]: 1.05 × 10^−14 cm^3 L mol^−1 | R 0 (critical energy transfer distance) [9]: 2.51 nm | melting point: 197 °C

CC(=O)N(C(=O)c1ccccc1)c1ccc(N=Cc2cc3ccccc3o2)cc1 [Compound 5c, N-acetyl-N -(4-((benzofuran-2-ylmethylene)amino)phenyl)benzamide]
MIC ([1]; Aspergillus niger): 40 µg/mL (≈ 105 µM) | MIC [2]: 40 µg/mL (≈ 105 µM) | MIC [3]: 35 µg/mL (≈ 91.5 µM) | MIC [4]: 50 µg/mL (≈ 131 µM) | MIC [5]: 50 µg/mL (≈ 131 µM) | MIC [6, 10]: 35 µg/mL (≈ 91.5 µM) | IC50 DPPH [7]: 61.7 ± 0.55 µg/mL (≈ 161 µM) | IC50 Superoxide [8]: 60.9 ± 0.28 µg/mL (≈ 159 µM) | E (efficiency of energy transfer) [9]: 0.14 | r (binding distance between donor BSA and acceptor) [9]: 4.11 nm | J (spectral overlap) [9]: 3.05 × 10^−14 cm^3 L mol^−1 | R 0 (critical energy transfer distance) [9]: 3.04 nm | melting point: 192 °C

CC(=O)N(C(=O)c1cc(F)c(F)c(F)c1)c1ccc(N=Cc2cc3ccccc3o2)cc1 [Compound 5g, N-acetyl-N-(4-(benzofuran-2-ylmethyleneamino)phenyl)-3,4,5-trifluorobenzamide]
MIC ([1]; A. niger, dilution method, average of three replicates): 10 µg/mL (≈ 22.9 µM) | MIC ([1]; Aspergillus niger): 10 µg/mL (≈ 22.9 µM) | MIC [2]: 15 µg/mL (≈ 34.4 µM) | MIC [3]: 10 µg/mL (≈ 22.9 µM) | MIC [4]: 12 µg/mL (≈ 27.5 µM) | MIC [5]: 10 µg/mL (≈ 22.9 µM) | MIC ([6]; S. aureus, dilution method, average of three replicates): 9.8 µg/mL (≈ 22.5 µM) | MIC [6, 10]: 9.8 µg/mL (≈ 22.5 µM) | IC50 DPPH [7]: > 100 µg/mL and >125 µg/mL | IC50 Superoxide [8]: 123 ± 0.44 µg/mL (≈ 282 µM) | E (efficiency of energy transfer) [9]: 0.31 | r (binding distance between donor BSA and acceptor) [9]: 3.07 nm | J (spectral overlap) [9]: 2.37 × 10^−14 cm^3 L mol^−1 | R 0 (critical energy transfer distance) [9]: 2.86 nm | melting point: 190 °C

CC(=O)N(C(=O)c1cc(F)cc(F)c1)c1ccc(N=Cc2cc3ccccc3o2)cc1 [Compound 5h, N-acetyl-N-(4-((benzofuran-2-ylmethylene)amino)phenyl)-3,5-difluorobenzamide]
MIC ([1]; Aspergillus niger): 10 µg/mL (≈ 23.9 µM) | MIC [2]: 15 µg/mL (≈ 35.9 µM) | MIC [3]: 12.4 µg/mL (≈ 29.6 µM) | MIC [4]: 25 µg/mL (≈ 59.8 µM) | MIC [5]: 25 µg/mL (≈ 59.8 µM) | MIC [6, 10]: 12.4 µg/mL (≈ 29.6 µM) | IC50 DPPH [7]: > 100 µg/mL and 100 ± 0.19 µg/mL | IC50 Superoxide [8]: 96.1 ± 0.31 µg/mL (≈ 230 µM) | E (efficiency of energy transfer) [9]: 0.15 | r (binding distance between donor BSA and acceptor) [9]: 2.93 nm | J (spectral overlap) [9]: 4.91 × 10^−14 cm^3 L mol^−1 | R 0 (critical energy transfer distance) [9]: 2.16 nm | melting point: 187 °C

COc1ccc(C(=O)N(C(C)=O)c2ccc(N=Cc3cc4ccccc4o3)cc2)cc1 [Compound 5i, N-acetyl-N-(4-(benzofuran-2-ylmethyleneamino)phenyl)-4-methoxybenzamide]
MIC ([1]; Aspergillus niger): 35 µg/mL (≈ 84.9 µM) | MIC [2]: 30 µg/mL (≈ 72.7 µM) | MIC [3]: 50 µg/mL (≈ 121 µM) | MIC [4]: 30 µg/mL (≈ 72.7 µM) | MIC [5]: 35 µg/mL (≈ 84.9 µM) | MIC [6, 10]: 40 µg/mL (≈ 97 µM) | IC50 DPPH [7]: 18.5 ± 0.17 µg/mL (≈ 44.9 µM) | IC50 Superoxide [8]: 14.3 ± 0.23 µg/mL (≈ 34.7 µM) | E (efficiency of energy transfer) [9]: 0.33 | r (binding distance between donor BSA and acceptor) [9]: 3.17 nm | J (spectral overlap) [9]: 2.79 × 10^−14 cm^3 L mol^−1 | R 0 (critical energy transfer distance) [9]: 2.83 nm | melting point: 205 °C

CC(=O)N(C(=O)c1ccc(O)cc1)c1ccc(N=Cc2cc3ccccc3o2)cc1 [Compound 5j, N-acetyl-N-(4-((benzofuran-2-ylmethylene)amino)phenyl)-4-hydroxybenzamide]
MIC ([1]; Aspergillus niger): 40 µg/mL (≈ 100 µM) | MIC [2]: 40 µg/mL (≈ 100 µM) | MIC [3]: 35 µg/mL (≈ 87.8 µM) | MIC [4]: 50 µg/mL (≈ 125 µM) | MIC [5]: 50 µg/mL (≈ 125 µM) | MIC [6, 10]: 35 µg/mL (≈ 87.8 µM) | IC50 DPPH [7]: 15.3 ± 0.11 µg/mL (≈ 38.4 µM) | IC50 Superoxide [8]: 11.6 ± 0.04 µg/mL (≈ 29.1 µM) | E (efficiency of energy transfer) [9]: 0.14 | r (binding distance between donor BSA and acceptor) [9]: 4.09 nm | J (spectral overlap) [9]: 4.26 × 10^−14 cm^3 L mol^−1 | R 0 (critical energy transfer distance) [9]: 3.02 nm | melting point: 213 °C
